Source: patent US20080233159A1, “Home-use insecticide” (priority 2007, published 2008)

Key:
house flies = settings: microdrop method, prallethrin isomers, d/d-trans isomer = 100; cited from earlier work
[1] = tested on: adult male American cockroaches; test: Turntable method, test aerosols; assay type: in vivo; settings: 0.35 g/300 ml aerosol; for KT50 value: 1 second spray, 5 minutes exposure
Excerpt: (2-a) Turntable Method: A glass cylinder having an inner diameter of 20 cm and height of 43 cm was placed on a wooden stand and a glass pot (outer diameter: 15 cm, height: 15 cm) containing two adult male American cockroaches was attached directly beneath the cylinder by using a glass plate as a shutter. Test aerosol insecticides prepared in accordance with Example 1 were sprayed into the glass cylinder for 1 second. Five seconds later, the glass plate shutter was pulled out and the test cockroaches were exposed to the descending aerosol particles for 5 minutes. The range of times until the occurrence of knockdown and the approximate average times were determined followed by observation of mortality 24 hours later. This test was repeated six times.

American cockroaches = test: Residual contact method, test aerosols on decorative sheet; assay type: in vivo; settings: for Mortality after 72 hours, After 1 day of spray: 0.35 g/300 ml aerosol at 25 mL/m^2, 2 hours contact 1 day after spraying
Experimental: (2-b) Residual Contact Method: The test aerosols were sprayed onto a decorative sheet measuring 20 cm on a side at the rate of 25 mL/m^2. After 1 day of spraying, a glass ring measuring 12 cm in diameter was placed on the decorative sheet and five American cockroaches were contacted with the sheet for 2 hours inside the ring at 1, 7, 15 and 21 days after spraying followed by observation of mortality 72 hours later.

[2] = Solubility / compatibility with kerosene; assay type: physicochemical
female house flies = test: Comparative efficacy test by the microdrop method, subject compound and its seven other isomers; assay type: in vivo; settings: for Insecticidal Efficacy Relative efficacy ratio: subject compound = 100
Experimental: 2-Methyl-4-oxo-3-(2-propynyl)-2-cyclopenten-1-yl 2,2-dimethyl-3-(2,2-dichlorovinyl)cyclopropanecarboxylate has a total of eight isomers based on two asymmetric carbon atoms of the acid portion and one asymmetric carbon atom of the alcohol portion. Therefore, a comparative efficacy test was conducted on female house flies using the microdrop method for the subject compound and the other seven isomers.

[3] = tested on: House flies (female adults); test: Glass chamber method, test aerosols; assay type: in vivo; settings: for Mortality: 10 minutes exposure, kill rate after additional 24 hours; for KT50 value: glass chamber 0.216 m^3, 1 second spray
Experimental: Glass chamber method: test aerosol insecticides prepared in accordance with Example 1 were sprayed for 1 second in a glass chamber having a volume of 60×60×60 cm (0.216 m^3). House flies (in groups of about 25 female adults each) were released into the chamber 10 seconds later, and the numbers of test […] that fell to the ground and rolled over during 10 minutes of exposure were recorded over the course of time to determine the KT50 values followed by observation of the kill rate after an additional 24 hours.

Molecule	Relative efficacy ratio (house flies)	Insecticidal Efficacy LD50 (female house flies) [μg/insect]	Insecticidal Efficacy Relative efficacy ratio (female house flies)	further results
2-Methyl-4-oxo-3-(2-propynyl)-2-cyclopenten-1-yl 2,2-dimethyl-3-(2,2-dichlorovinyl)cyclopropanecarboxylate [Compound 2]	39			
C#CCN1CC(=O)N(COC(=O)[C@@H]2C(C=C(C)C)C2(C)C)C1=O (mixture of isomers) [Imiprothrin, imiprothrin, reference compound]				Mortality after 24 hours [1]: 83%; KT50 value [1]: 51 s; Mortality after 72 hours, After 1 day of spray (American cockroaches): 0%; Solubility in / compatibility with kerosene [2]: extremely poor solubility in kerosene
C#CCC1=C(C)C(OC(=O)[C@H]2[C@H](C=C(Cl)Cl)C2(C)C)CC1=O (relative stereo) [Compound 1, (d)-2-methyl-4-oxo-3-(2-propynyl)-2-cyclopenten-1-yl (d)-trans-2,2-dimethyl-3-(2,2-dichlorovinyl)cyclopropanecarboxylate]	100	0.0263	100	Mortality ([3]; 0.15 g/300 ml aerosol): 93.3%; Mortality ([3]; 0.45 g/300 ml aerosol): 100%; KT50 value ([3]; 0.15 g/300 ml aerosol): 73 s; KT50 value ([3]; 0.45 g/300 ml aerosol): 36 s; Mortality after 24 hours [1]: 100%; KT50 value [1]: 102 s; Mortality after 72 hours, After 1 day of spray (American cockroaches): 100%; Mortality after 72 hours, After 7 days (American cockroaches; 0.35 g/300 ml aerosol at 25 mL/m^2, 2 hours contact 7 days after spraying): 100%; Mortality after 72 hours, After 15 days (American cockroaches; 0.35 g/300 ml aerosol at 25 mL/m^2, 2 hours contact 15 days after spraying): 100%; Mortality after 72 hours, After 21 days (American cockroaches; 0.35 g/300 ml aerosol at 25 mL/m^2, 2 hours contact 21 days after spraying): 100%; Solubility in / compatibility with kerosene [2]: satisfactory compatibility with solvents such as kerosene
C#CCC1=C(C)C(OC(=O)C2C(C=C(Cl)Cl)C2(C)C)CC1=O (stereo not drawn) [Compound 2, 2-Methyl-4-oxo-3-(2-propynyl)-2-cyclopenten-1-yl 2,2-dimethyl-3-(2,2-dichlorovinyl)cyclopropanecarboxylate]		0.0415	63.0	
C#CCC1=C(C)C(OC(=O)C2C(C=C(Cl)Cl)C2(C)C)CC1=O (stereo not drawn) [Compound 3, 2-Methyl-4-oxo-3-(2-propynyl)-2-cyclopenten-1-yl 2,2-dimethyl-3-(2,2-dichlorovinyl)cyclopropanecarboxylate]	17	0.245	11.0	
C#CCC1=C(C)C(OC(=O)C2C(C=C(Cl)Cl)C2(C)C)CC1=O (stereo not drawn) [Compound 4, 2-Methyl-4-oxo-3-(2-propynyl)-2-cyclopenten-1-yl 2,2-dimethyl-3-(2,2-dichlorovinyl)cyclopropanecarboxylate]	13	0.376	7.0	
C#CCC1=C(C)C(OC(=O)C2C(C=C(Cl)Cl)C2(C)C)CC1=O (stereo not drawn) [Compound 5, 2-Methyl-4-oxo-3-(2-propynyl)-2-cyclopenten-1-yl 2,2-dimethyl-3-(2,2-dichlorovinyl)cyclopropanecarboxylate]	1.3	0.337	7.8	
C#CCC1=C(C)C(OC(=O)C2C(C=C(Cl)Cl)C2(C)C)CC1=O (stereo not drawn) [Compound 6, 2-Methyl-4-oxo-3-(2-propynyl)-2-cyclopenten-1-yl 2,2-dimethyl-3-(2,2-dichlorovinyl)cyclopropanecarboxylate]	0.4	0.526	5.0	
C#CCC1=C(C)C(OC(=O)C2C(C=C(Cl)Cl)C2(C)C)CC1=O (stereo not drawn) [Compound 7, 2-Methyl-4-oxo-3-(2-propynyl)-2-cyclopenten-1-yl 2,2-dimethyl-3-(2,2-dichlorovinyl)cyclopropanecarboxylate]	0.2	3.29	0.8	
C#CCC1=C(C)C(OC(=O)C2C(C=C(Cl)Cl)C2(C)C)CC1=O (stereo not drawn) [Compound 8, 2-Methyl-4-oxo-3-(2-propynyl)-2-cyclopenten-1-yl 2,2-dimethyl-3-(2,2-dichlorovinyl)cyclopropanecarboxylate]	0.2	5.30	0.5	
d-T80-phthalthrin [reference compound]				Mortality ([3]; 0.15 g/300 ml aerosol): 20.0%; Mortality ([3]; 0.45 g/300 ml aerosol): 39.2%; KT50 value ([3]; 0.15 g/300 ml aerosol): 204 s; KT50 value ([3]; 0.45 g/300 ml aerosol): 73 s; Mortality after 24 hours [1]: 33%; KT50 value [1]: >300 s
